In PMC12298876, “Angiotensin-Converting Enzyme Inhibitory Activity of Selected Phenolic Acids, Flavonoids, Their O-Glucosides, and Low-Molecular-Weight Phenolic Metabolites in Relation to Their Oxidation Potentials” (Metabolites, 2025):
Values joined by “and” are separate entries in the source; they are usually repeats but may differ in a detail not shown here. Identical values can stand only once. Like-named read-outs stand apart in the source and are kept apart here. Marks after values point to notes of the source that are not given here.

Columns and labels:
ACE [1] = system: ACE; design: method as in PMID 23185345; conditions: same fluorometric method as this study; read-out: IC50 (ACE inhibition); cited from earlier work
[2] = target: T1, Angiotensin-converting enzymes (ACE) from porcine kidneys (EC 3.4.15.1) (Sus scrofa, UniProt F1RRW5); experiment: biochemical; conditions: for lower IC50 in relation to the respective aglycone: glycoside vs aglycon; for ACE inhibitory activity lower than that of reduced glutathione (GSH): ratio to the IC50 of GSH
T1 construct: Angiotensin-converting enzymes (ACE) from porcine kidneys (EC 3.4.15.1) were purchased from Sigma-Aldrich; purchased Sigma-Aldrich (St. Louis, MO, USA); host or cells: porcine kidneys (tissue-derived enzyme)
T1 sequence (F1RRW5 34-1309): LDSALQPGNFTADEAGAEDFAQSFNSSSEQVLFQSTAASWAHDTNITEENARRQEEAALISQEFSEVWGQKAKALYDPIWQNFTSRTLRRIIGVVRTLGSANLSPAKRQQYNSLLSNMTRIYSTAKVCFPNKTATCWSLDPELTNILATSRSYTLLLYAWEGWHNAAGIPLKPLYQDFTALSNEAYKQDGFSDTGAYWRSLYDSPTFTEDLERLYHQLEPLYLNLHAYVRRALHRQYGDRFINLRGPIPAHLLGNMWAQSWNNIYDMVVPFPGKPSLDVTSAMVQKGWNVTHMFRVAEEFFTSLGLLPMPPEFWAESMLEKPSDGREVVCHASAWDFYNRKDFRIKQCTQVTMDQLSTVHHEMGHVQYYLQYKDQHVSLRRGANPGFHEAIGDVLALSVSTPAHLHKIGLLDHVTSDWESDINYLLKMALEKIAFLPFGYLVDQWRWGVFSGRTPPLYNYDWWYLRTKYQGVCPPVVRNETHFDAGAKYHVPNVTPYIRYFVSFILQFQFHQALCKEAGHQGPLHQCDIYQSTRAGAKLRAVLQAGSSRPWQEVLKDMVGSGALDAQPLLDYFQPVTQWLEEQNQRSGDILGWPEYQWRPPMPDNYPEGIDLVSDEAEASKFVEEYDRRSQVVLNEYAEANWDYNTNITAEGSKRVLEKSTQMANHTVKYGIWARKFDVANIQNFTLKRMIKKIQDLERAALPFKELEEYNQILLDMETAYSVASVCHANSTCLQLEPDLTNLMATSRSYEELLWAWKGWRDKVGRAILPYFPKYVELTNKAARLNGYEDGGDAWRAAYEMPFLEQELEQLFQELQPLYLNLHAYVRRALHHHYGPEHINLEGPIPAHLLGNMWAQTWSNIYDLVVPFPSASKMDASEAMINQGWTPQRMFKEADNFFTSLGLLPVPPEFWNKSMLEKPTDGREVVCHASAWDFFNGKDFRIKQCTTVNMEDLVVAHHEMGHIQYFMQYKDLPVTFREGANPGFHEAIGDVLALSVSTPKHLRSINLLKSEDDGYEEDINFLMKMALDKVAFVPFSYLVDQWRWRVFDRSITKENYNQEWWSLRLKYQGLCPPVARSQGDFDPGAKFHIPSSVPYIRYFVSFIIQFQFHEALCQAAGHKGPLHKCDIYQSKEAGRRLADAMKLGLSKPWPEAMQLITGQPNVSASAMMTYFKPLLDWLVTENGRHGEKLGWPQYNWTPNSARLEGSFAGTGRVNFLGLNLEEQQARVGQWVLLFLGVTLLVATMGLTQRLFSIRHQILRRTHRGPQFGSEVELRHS
Experimental: Angiotensin-converting enzymes (ACE) from porcine kidneys (EC 3.4.15.1) were purchased from Sigma-Aldrich (St. Louis, MO, USA). A three-tris-base buffer was as follows: buffer A: 300 mM Tris-base buffer (pH 8.3) with 2 mM ZnCl2; buffer B: 150 mM Tris-base buffer (pH 8,3); and buffer C: 150 mM Tris-base buffer (pH 8.3) with […] NaCl. The substrate o-aminobenzoylglycyl-p-nitorphenylalanylproline (Abz-Gly-Phe(NO2)-Pro) was obtained from BACHEM (Bubendorf, Switzerland). Standards of phenolic acids, flavonoids, glucosides, and low-molecular-weight phenolic metabolites were obtained from Sigma-Aldrich (St. Louis, MO, USA) and Extrasynthese (Genay, France). Water was purified using the Mili-Q system (Milipore, Bedford, MA, USA).
Stock solutions at 1 mM of selected phenolic acids, flavonoids, their O-glucosides, and low-molecular-weight phenolic metabolites were prepared in 80% methanol. The concentration was confirmed by a UV measurement according to Franke et al.. A wide range of concentrations of each compound was prepared by serial dilutions in deionized water to determine the IC50 value. […] The ACE inhibitory activity was obtained from three repetitions (n = 3) for each concentration.
Angiotensin-converting enzyme (ACE) activity inhibitory assay was performed according to the method of Sentandreu and Toldra. The procedure was based on the hydrolysis of the internally quenched substrate o-aminobenzoylglycyl-p-nitorphenylalanylproline (Abz-Gly-Phe(NO2)-Pro) by the reaction of ACE. The fluorescence generated by the liberation of the product (the o-aminobenzoylglycine group) was read in a microplate multiscan fluorometer. The production of fluorescence was inhibited by the presence of functional compounds with an ACE inhibitory effect. The fluorescence was measured immediately after mixing (0 min) and then after 30 min of reaction at an excitation of 365 nm and an emission of 405 nm. To calculate the % of inhibition of ACE, the following equation was used:Relative ACE activity% = 100 − (ΔRFUsample × 100/ΔRFUnegative control), where ΔRFU = RFU at time 30 – RFU at time 0.

[3] = First anodic oxidation potential by differential pulse voltammetry (DPV); type: physicochemical; conditions: for Anodic Peak Potential Epa: DPV, first anodic peak, 0.25 mM standard in 0.1 M Britton-Robinson buffer pH 6.0 in 80% methanol, glassy carbon vs Ag/AgCl, 100 mV/s
Experimental: A potentiostat/galvanostat G 750 (Gamry Instruments, Warminster, USA) was used for voltametric experiments. A conventional three-electrode system: a 3 mm diameter glassy carbon working electrode (BAS MF-2012), an Ag/AgCl electrode as a reference electrode, and a platinum as counter electrode, was used in the study. Differential pulse voltametric experiments were performed with phenolic acids and flavonoids prepared in a 1:1 (v/v) mixture of 500 µM standard solution and […] Britton-Robinson (B-R) buffer (pH 6.0 in 80% methanol), which also served as a supporting electrolyte. The voltametric experiments were performed at room temperature using an electrochemical cell (volume 200 µL), to which the analyzed standard solution, mixed previously with the buffer solution, was introduced. The differential pulse voltammograms were acquired in the range of −100 to 1300 mV at a scanning rate of 100 mV/s. Before use, the surface of the glassy carbon electrode was carefully polished with 0.05 µm alumina paste, ultrasonically rinsed in deionized water, and then washed with methanol. This procedure was repeated after each cycle. For test purposes, the first anodic oxidation potential was recorded (mV).

ACE [4] = conditions: cited from earlier work; for IC50: read-out: IC50 (ACE inhibitory activity)
[5] = system: formation of advanced glycation end products; design: method as in PMID 27709826; conditions: cited from earlier work
[6] = porcine kidney ACE, substrate Abz-Gly-Phe(NO2)-Pro, fluorescence after 30 min, mean ± SD, read-out: IC50 Value (ACE inhibitory activity)
[7] = IC50 Value (ACE inhibitory activity), porcine kidney ACE, substrate Abz-Gly-Phe(NO2)-Pro, fluorescence after 30 min, mean ± SD

IC50 [2, 6] | SMILES | Anodic Peak Potential Epa [3] | further results
 | C[C@@H]1O[C@@H](O[C@H]2[C@H](Oc3cc(O)c4c(=O)cc(-c5ccc(O)cc5)oc4c3)O[C@H](CO)[C@@H](O)[C@@H]2O)[C@H](O)[C@H](O)[C@H]1O [rhoifolin, reference compound] |  | IC50 (ACE [1]): 183 µM
0.0771 ± 0.00255 mM | O=c1cc(-c2ccc(O)c(O)c2)oc2cc(O)cc(O)c12 [Luteolin] | 407 ± 5 ^f mV | IC50 lower than the value for naringenin ([2]; ACE inhibition): fivefold; IC50 (ACE [1]): 23 µM
0.132 ± 0.00247 mM | O=c1c(O)c(-c2ccc(O)cc2)oc2cc(O)cc(O)c12 [Kaempferol] | 394 ± 4 ^g mV | IC50 (ACE [1]): 178 µM
 | C[C@@H]1O[C@@H](OC[C@H]2O[C@@H](Oc3c(-c4ccc(O)c(O)c4)oc4cc(O)cc(O)c4c3=O)[C@H](O)[C@@H](O)[C@@H]2O)[C@H](O)[C@H](O)[C@H]1O [Rutin, quercetin-O-3-rutinoside] | 389 ± 4 ^g mV | lower IC50 in relation to the respective aglycone ([2]; ACE inhibition): 50%; IC50 [2, 7]: 0.0593 mM; IC50 (ACE [1]): 64 µM
0.293 ± 0.0034 mM | Oc1ccc(-c2[o+]c3cc(O)cc(O)c3cc2O)cc1 [Pelargonidin] | 228 ± 5 ^j mV | 
0.315 ± 0.0098 mM | O=C(O)C=Cc1ccc(O)cc1 [p-Coumaric acid] | 672 ± 10 ^b mV | Anodic Peak Potential Epa ([3]; listed as p-coumaric acid): 672 mV
4.11 ± 0.0483 mM | COc1cc(C(=O)O)ccc1O [Vanillic acid] | 748 ± 10 ^a mV | Anodic Peak Potential Epa ([3]; listed as vanillic acid): 748 mV
 | O=C(CCc1ccc(O)cc1)c1c(O)cc(O)cc1O [phloretin] |  | IC50 higher than the IC50 of phloretin 2′-O-glucose (ACE [4]): 25%; IC50 (ACE [4]): 286.8 ± 2.54 µM
9.11 mM | O=C(O)/C=C/c1ccc(O)c(O)c1 [Caffeic acid] | 397 ± 8 ^e mV | IC50 ([2]; values of this study restated in mM in the discussion, read-out: IC50 (ACE inhibition)): 9.11 ± 0.06 mM; Anodic Peak Potential Epa ([3]; listed as caffeic acid): 397 mV; IC50 (ACE [4]): 8970 ± 80 µM
 | O=c1cc(-c2ccc(O)cc2)oc2cc(O)cc(O)c12 [Apigenin] | 810 ± 6 ^c mV | IC50 [2, 7]: 0.337 ± 0.00372 mM; IC50 (ACE [1]): 196 µM
 | O=c1c(OC2OC(CO)C(O)C(O)C2O)c(-c2ccc(O)cc2)oc2cc(O)cc(O)c12 (stereo not shown) [Kaempferol-3-O-glucoside] | 359 ± 3 ^fg mV | lower IC50 in relation to the respective aglycone ([2]; ACE inhibition): 16%; IC50 [2, 7]: 0.11 ± 0.00356 mM
0.6728 ± 0.00493 mM | O=C(O)Cc1ccc(O)c(O)c1 [3,4-DHPAA, 3,4-dihydroxyphenylacetic acid] | 432 ± 6 ^g mV | inhibitory activity against the formation of advanced glycation end products [5]: strong inhibitory activity

SMILES | IC50 [2, 6] | Anodic Peak Potential Epa [3] | further results
O=C(O)CCc1ccc(O)cc1 [4-HPPA, 3-(4-hydroxyphenyl)propionic acid] | 0.49 mM and 0.491 mM | 664 ± 8 ^e mV | ACE inhibitory activity lower than that of reduced glutathione (GSH) [2]: ~12 fold; antioxidant power class based on the first oxidation potential ([3]; low-molecular-weight phenolic metabolites, classes according to Blasco et al. [47]): moderate antioxidant power (moderate antioxidant power (0.3 V < Epa < 0.8 V))
O=C(/C=C/c1ccc(O)c(O)c1)O[C@@H]1C[C@](O)(C(=O)O)C[C@@H](O)[C@H]1O [Chlorogenic acid] | 0.134 mM | 443 ± 9 ^d mV | ACE inhibitory activity lower than that of reduced glutathione (GSH) [2]: threefold
OCC1OC(Oc2cc3c(O)cc(O)cc3[o+]c2-c2ccc(O)c(O)c2)C(O)C(O)C1O (stereo not shown) [Cyanidin-3-O-glucoside] | 0.185 ± 0.00258 mM | 373 ± 4 ^g mV | higher value of IC50 as compared to the IC50 of the respective aglycon ([2]; ACE inhibition, glucoside vs aglycon): 5%
O=c1cc(-c2ccc(O)cc2)oc2cc(OC3O[C@H](CO)[C@@H](O)[C@H](O)[C@H]3O)cc(O)c12 (stereo partly shown) [Apigenin-7-O-glucoside] | 0.218 ± 0.00253 mM | 841 ± 6 ^ab mV | lower IC50 in relation to the respective aglycone ([2]; ACE inhibition): 35%
O=c1c(O)c(-c2ccc(O)cc2)oc2cc(OC3OC(CO)C(O)C(O)C3O)cc(O)c12 (stereo not shown) [Kaempferol-7-O-glucoside] | 0.0977 ± 0.00208 mM | 419 ± 6 ^f mV | lower IC50 in relation to the respective aglycone ([2]; ACE inhibition): 26%
